How the values were obtained:
[1] = Metabolic stability in liver microsome; type: in vitro ADME; conditions: 0.5 mg/mL CD1 mouse liver microsome, 0.5 μM test compound, NADPH and UDPGA, 37° C.
Procedure: 0.5 mg/mL CD1 mouse liver microsome solution, 0.5 μM test compound, 1.0 mM reduced nicotinamide adenine dinucleotide phosphate (NADPH), and 1.0 mM uridine diphosphate-A-glucuronic acid (UDPGA) were added to the incubation plate and mixed, and the plate was incubated at 37° C. for 0, 30, 60, 120 min separately. The positive control group was set as 0.5 μM CYP3A4 probe substrate-testosterone and 0.5 μM UGT probe substrate-7-hydroxycoumarin incubated with microsomes for 0 and 120 min in the presence of NADPH and UDPGA; the negative control group (NC) was set as the test substance incubated with microsomes for 0 and 120 min without any coenzyme. After the reaction was terminated by adding pre-cooled methanol at each termination time, the reaction mixture was centrifuged at 4000 rpm for 10 min, the supernatant was taken and the remaining amount of the parent drug in the sample was measured by LC-MS/MS, the results of which are shown in Table 4.

MDCKII-MDR1 cells = test: MDCKII-MDR1 cell permeability assay; type: in vitro ADME; conditions: 1 μM test compound, 2 h
Procedure: 50 μL of MDCKII-MDR1 cell suspension with a density of 1.56×10^6 cells/mL was seeded into a Transwell well of a 96-well plate, and the plate was cultured in a cell incubator at 37° C. in 5% CO2. […] The medium in Transwell was discarded, and HBSS equilibration solution was added and incubated at 37° C. for 30 min. Subsequently, an apical to basolateral drug transport rate assay was performed by adding 1 μM test compound solution to the Transwell AB side and a blank equilibration solution to the BL side. When the basolateral to apical drug transport rate assay was performed, the operation steps were reversed. Subsequently, the cells were placed in an incubator for 2 h. After the incubation, samples were taken from the basolateral and apical respectively, and after centrifugation, the supernatant was subjected to LC-MS/MS analysis, and the apparent permeability coefficient (Papp) was calculated, the results of which are shown in Table 5.

TNKS1 = TNKS1 (Homo sapiens (Human), UniProt O95271); test: Enzymatic biochemical assay of PARP (chemiluminescence detection kit), TNKS1
Procedure: (§1) This assay adopted PARP1, TNKS1, TNKS2, PARP7 and PARP14 chemiluminescence detection kits (BPS, Cat No. 80551/80552/80573/80578/79729/80568) for enzymatic biochemical assay of PARP. The specific scheme was as follows: the 1× histone mixture was added to a 96-well plate at 50 μL per well, and the plate was incubated overnight at 4° C. The next day, after the plate was washed with PBST, 200 μL of blocking buffer per well was added, and the plate was incubated for 90 min. After the plate was washed with PBST again, 5 μL of inhibitor, 20 μL of 1×PARP buffer and 25 μL of […] were added to each well, and the plate was incubated at room temperature for 30 min. After the plate was washed with PBST, 100 μL of Elisa ECL substrate A and B mixture was added to each well, chemiluminescence value was immediately read using a plate reader, and IC50 values were calculated.

PARP1 = PARP1 (Homo sapiens (Human), UniProt P09874); test: Enzymatic biochemical assay of PARP (chemiluminescence detection kit), PARP1
Procedure: as §1

PARP14 = PARP14 (Homo sapiens (Human), UniProt Q460N5); test: Enzymatic biochemical assay of PARP (chemiluminescence detection kit), PARP14
Procedure: as §1

NCI-H1373 cells = test: NCI-H1373 cell proliferation inhibition assay; type: cell-based; conditions: Homo sapiens, NCI-H1373, 144 h; 6 days of incubation, Cell Titer Blue
Procedure: Human lung adenocarcinoma cells NC-H1373 (ATCC, CRL-5866M) were cultured in a cell incubator at 37° C. and 5% CO2 using RPMI-1640 medium containing 10% FBS and 1% […]. The cells in the logarithmic growth phase were counted by digestion and inoculated in a 96-well plate at 1500 NCI-H1373 per well, and the plate was placed in an incubator overnight. The next day, test compounds were formulated in 10 mM stock solution by using DMSO and 3-fold diluted in gradient from a maximum concentration of 10 μM by using RPMI-1640 medium, and 10 gradient concentrations were set with 2 parallel wells per concentration gradient. After 6 days of incubation, 100 μL of Cell Titer Blue working solution was added to each well and the chemiluminescence value was read in a microplate reader. IC50 was calculated using GraphPad Prism7.0 software.

TNKS2 = TNKS2 (Homo sapiens (Human), UniProt Q9H2K2); test: Enzymatic biochemical assay of PARP (chemiluminescence detection kit), TNKS2
Procedure: as §1

PARP7 = PARP7 (Homo sapiens (Human), UniProt Q7Z3E1); test: Enzymatic biochemical assay of PARP (chemiluminescence detection kit), PARP7; conditions: read-out: Inhibitory activity against PAPR7 (IC50)
Procedure: as §1

Sequence of TNKS1 (O95271 whole entry): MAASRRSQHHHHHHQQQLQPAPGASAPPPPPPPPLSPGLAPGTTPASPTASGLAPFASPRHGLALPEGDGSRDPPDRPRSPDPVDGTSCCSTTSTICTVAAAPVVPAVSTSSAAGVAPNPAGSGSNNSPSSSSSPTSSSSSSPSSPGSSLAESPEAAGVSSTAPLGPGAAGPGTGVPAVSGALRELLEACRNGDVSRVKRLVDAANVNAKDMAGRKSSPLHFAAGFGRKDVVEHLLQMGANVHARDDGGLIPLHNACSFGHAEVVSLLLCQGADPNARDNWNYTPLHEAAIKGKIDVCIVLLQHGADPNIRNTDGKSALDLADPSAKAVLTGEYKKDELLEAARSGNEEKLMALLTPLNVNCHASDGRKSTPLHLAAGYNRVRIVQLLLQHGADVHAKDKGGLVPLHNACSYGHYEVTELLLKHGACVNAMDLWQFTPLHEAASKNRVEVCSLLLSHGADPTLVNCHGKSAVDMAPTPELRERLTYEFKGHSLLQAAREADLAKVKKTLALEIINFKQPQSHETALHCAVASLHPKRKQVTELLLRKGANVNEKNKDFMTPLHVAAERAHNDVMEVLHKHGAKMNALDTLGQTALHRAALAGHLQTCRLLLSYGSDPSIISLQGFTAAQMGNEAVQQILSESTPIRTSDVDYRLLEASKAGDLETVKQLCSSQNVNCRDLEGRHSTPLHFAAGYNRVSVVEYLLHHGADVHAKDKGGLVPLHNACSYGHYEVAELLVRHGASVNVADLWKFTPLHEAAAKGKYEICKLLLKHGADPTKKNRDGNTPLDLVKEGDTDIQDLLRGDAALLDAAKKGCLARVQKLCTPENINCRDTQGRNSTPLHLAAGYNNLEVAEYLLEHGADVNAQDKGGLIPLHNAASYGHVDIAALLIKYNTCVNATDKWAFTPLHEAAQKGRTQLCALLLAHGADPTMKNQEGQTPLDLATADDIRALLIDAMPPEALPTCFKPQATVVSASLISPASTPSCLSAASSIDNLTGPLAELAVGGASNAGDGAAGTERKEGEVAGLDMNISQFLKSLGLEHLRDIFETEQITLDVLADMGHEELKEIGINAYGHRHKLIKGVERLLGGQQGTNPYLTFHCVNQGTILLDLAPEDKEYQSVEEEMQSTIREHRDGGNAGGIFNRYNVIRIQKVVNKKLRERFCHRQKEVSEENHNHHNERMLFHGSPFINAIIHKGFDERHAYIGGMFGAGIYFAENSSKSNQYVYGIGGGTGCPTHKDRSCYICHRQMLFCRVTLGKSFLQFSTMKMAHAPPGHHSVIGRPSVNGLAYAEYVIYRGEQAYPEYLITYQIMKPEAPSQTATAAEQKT
Sequence of PARP1 (P09874 whole entry): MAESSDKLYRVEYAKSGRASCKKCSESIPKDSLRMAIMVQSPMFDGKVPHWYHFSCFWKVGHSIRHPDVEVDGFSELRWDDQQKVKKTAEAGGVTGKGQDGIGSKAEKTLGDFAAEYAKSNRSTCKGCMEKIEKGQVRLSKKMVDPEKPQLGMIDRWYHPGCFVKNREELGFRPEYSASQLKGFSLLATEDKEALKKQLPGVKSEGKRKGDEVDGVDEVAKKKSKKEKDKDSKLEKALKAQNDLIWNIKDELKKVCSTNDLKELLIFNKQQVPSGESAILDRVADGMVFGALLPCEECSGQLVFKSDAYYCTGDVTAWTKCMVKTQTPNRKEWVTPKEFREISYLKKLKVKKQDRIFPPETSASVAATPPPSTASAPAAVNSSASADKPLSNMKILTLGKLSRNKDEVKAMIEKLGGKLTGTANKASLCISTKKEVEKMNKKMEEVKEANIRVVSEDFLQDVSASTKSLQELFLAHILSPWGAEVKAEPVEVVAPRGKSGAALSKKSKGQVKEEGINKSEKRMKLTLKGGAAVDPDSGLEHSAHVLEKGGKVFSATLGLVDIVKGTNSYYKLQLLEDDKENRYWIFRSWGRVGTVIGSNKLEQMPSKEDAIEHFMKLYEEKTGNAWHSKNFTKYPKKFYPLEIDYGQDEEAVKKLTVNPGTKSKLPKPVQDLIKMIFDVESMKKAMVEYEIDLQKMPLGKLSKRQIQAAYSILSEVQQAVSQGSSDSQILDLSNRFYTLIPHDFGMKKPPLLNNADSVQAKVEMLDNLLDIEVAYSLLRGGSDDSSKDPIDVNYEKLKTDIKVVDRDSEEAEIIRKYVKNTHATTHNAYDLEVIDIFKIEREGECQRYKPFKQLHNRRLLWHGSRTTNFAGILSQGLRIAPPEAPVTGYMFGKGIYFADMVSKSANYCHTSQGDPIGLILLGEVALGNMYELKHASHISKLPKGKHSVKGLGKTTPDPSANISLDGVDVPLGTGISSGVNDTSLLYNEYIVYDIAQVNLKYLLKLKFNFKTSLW
Sequence of TNKS2 (Q9H2K2 whole entry): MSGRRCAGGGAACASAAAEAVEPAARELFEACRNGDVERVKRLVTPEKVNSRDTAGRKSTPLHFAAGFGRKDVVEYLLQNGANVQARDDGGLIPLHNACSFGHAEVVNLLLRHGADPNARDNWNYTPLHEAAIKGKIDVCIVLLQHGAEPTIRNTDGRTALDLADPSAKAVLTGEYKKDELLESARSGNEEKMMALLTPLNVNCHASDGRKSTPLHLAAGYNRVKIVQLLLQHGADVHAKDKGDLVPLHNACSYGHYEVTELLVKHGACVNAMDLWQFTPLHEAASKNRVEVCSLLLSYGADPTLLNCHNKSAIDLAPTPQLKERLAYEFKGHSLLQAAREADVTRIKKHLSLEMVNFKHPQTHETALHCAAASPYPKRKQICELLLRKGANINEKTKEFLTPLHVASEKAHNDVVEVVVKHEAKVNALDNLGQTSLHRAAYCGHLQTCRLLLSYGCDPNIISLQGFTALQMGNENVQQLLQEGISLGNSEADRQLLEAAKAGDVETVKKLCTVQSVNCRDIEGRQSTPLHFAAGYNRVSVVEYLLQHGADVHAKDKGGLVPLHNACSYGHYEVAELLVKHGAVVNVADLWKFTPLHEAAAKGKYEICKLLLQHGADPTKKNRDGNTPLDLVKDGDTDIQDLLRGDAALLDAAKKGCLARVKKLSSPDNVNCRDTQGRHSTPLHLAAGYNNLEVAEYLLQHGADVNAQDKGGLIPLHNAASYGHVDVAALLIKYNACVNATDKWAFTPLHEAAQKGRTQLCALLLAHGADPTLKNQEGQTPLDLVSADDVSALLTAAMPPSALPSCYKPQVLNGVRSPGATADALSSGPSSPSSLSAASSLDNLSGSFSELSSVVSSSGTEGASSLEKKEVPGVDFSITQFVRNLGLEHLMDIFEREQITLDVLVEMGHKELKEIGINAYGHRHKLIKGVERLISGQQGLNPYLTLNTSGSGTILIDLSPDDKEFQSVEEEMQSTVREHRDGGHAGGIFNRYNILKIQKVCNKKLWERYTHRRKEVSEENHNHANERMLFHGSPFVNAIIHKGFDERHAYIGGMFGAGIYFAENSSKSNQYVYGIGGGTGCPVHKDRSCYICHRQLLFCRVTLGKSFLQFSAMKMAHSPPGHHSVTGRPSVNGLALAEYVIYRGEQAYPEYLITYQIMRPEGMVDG
Sequence of PARP7 (Q7Z3E1 whole entry): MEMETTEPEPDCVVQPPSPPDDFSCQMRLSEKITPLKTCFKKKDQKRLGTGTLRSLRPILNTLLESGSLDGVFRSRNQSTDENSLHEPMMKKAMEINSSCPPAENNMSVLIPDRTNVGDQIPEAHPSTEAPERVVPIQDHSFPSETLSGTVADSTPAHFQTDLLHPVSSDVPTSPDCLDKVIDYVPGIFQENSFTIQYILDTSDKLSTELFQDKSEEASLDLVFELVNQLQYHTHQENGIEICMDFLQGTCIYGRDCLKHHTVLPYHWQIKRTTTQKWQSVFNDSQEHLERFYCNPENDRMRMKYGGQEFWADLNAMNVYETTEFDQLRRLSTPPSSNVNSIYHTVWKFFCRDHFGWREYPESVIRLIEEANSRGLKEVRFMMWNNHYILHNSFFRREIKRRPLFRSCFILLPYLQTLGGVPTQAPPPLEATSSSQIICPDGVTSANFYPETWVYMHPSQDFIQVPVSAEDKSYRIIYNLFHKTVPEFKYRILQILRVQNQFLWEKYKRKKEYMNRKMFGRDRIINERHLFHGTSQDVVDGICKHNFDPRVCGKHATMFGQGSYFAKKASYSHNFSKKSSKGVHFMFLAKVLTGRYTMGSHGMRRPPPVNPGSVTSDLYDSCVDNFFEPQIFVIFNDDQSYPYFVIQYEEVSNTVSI

SMILES | T1/2 [1] | Papp (A-B) (MDCKII-MDR1 cells; apical to basolateral) | Papp (B-A) (MDCKII-MDR1 cells; basolateral to apical) | IC50 (TNKS1) | IC50 (PARP1) | half-life at 0.5 μM ([1]; liver microsomes) | IC50 (PARP14) | IC50 (NCI-H1373 cells) | IC50 (TNKS2) | IC50 (PARP7)
C[C@@H](COCCC(=O)N1CCN(c2ncc(C(F)(F)F)cn2)CC1)Nc1cn[nH]c(=O)c1C(F)(F)F [Comparative example, reference compound] | <30 min | 5.16 10-6, cm/s | 49.43 10-6, cm/s |  |  |  |  |  |  | 
C[C@@H](COCc1cc2n(n1)CCN(c1ncc(C(F)(F)F)cn1)C2)Nc1cn[nH]c(=O)c1C(F)(F)F [Compound 1] |  |  |  | > 10000 nM | > 1000 nM | > 30 min | > 10000 nM | < 50 nM | > 10000 nM | 10 to 50 nM

— patent US20240158406A1, “PIPERAZINE DERIVATIVE AND USE THEREOF IN MEDICINE” (CHENGDU BAIYU PHARMACEUTICAL CO., LTD., priority 2021, published 2024)
